Experiments:
[1] = molecular target: Beta-1 adrenergic receptor (Cavia porcellus) (UniProt B0FL73); assay: Agonist activity at beta-1 adrenergic receptor in guinea pig right atria assessed as increase in contraction rate of spontaneously beating right atria at 1.1 X 10^-5 M relative to control
[2] = molecular target: Beta-2 adrenergic receptor (Cavia porcellus) (UniProt Q8K4Z4); conditions: Trachea
Description: Agonist activity at beta-2 adrenergic receptor in guinea pig tracheal chain assessed as relaxation of spontaneously contracted tracheal smooth muscle

[3] = molecular target: Beta-1 adrenergic receptor (Cavia porcellus) (UniProt B0FL73); assay: Intrinsic activity at beta-1 adrenergic receptor in guinea pig right atria assessed as increase in contraction rate of spontaneously beating right atria relative to isoproterenol
Cavia porcellus = organism: Cavia porcellus; assay: Selectivity ratio of ED25 for beta-1 adrenergic receptor in guinea pig right atria to ED50 for beta-2 adrenergic receptor in guinea pig tracheal chain
[4] = molecular target: Beta-1 adrenergic receptor (Cavia porcellus) (UniProt B0FL73)
[5] = molecular target: Beta-1 adrenergic receptor (Cavia porcellus) (UniProt B0FL73); assay: Agonist activity at beta-1 adrenergic receptor in guinea pig right atria assessed as increase in contraction rate of spontaneously beating right atria at 6.3 X 10^-5 M relative to control

Sequence of Beta-1 adrenergic receptor (Cavia porcellus) (B0FL73 1-467): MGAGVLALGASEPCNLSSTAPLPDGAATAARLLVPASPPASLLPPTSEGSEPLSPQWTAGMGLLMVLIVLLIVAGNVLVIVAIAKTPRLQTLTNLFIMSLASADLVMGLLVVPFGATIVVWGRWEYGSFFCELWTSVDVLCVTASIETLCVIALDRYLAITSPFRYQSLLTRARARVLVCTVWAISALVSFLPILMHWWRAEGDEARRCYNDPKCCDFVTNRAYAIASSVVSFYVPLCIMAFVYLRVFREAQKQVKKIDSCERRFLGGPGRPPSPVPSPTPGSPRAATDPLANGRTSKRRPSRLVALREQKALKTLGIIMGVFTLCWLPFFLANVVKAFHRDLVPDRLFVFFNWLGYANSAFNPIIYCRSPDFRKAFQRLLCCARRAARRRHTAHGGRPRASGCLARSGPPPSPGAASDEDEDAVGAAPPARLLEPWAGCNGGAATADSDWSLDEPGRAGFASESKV
Sequence of Beta-2 adrenergic receptor (Cavia porcellus) (Q8K4Z4 whole entry, looked up): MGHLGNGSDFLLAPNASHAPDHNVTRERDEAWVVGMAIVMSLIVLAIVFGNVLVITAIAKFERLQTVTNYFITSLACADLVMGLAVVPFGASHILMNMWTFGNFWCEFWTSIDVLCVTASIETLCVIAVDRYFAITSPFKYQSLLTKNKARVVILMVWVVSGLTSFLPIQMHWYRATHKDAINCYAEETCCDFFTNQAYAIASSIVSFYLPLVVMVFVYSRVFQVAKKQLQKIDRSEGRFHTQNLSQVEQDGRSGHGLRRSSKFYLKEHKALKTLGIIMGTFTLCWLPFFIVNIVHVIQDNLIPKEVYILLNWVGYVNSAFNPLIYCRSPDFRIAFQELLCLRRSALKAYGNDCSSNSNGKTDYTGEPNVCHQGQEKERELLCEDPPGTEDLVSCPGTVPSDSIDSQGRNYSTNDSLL

Compound `CC(C)(C)NCC(CO)c1ccc(O)c(NS(C)(=O)=O)c1` (stereo not drawn) has an Activity [1] of 18% and an ED50 [2] of 6 ×10⁻⁷ M.
In the case of `CC(C)NCC(O)c1ccc(O)c(O)c1` (stereo not drawn), the ED50 [2] is reported as 0.0071 µM.
Compound `CC(C)(C)NCC(O)c1ccc(O)c(CO)c1` (stereo not drawn) has an Intrinsic activity [3] of 0.7, a Selectivity ratio (Cavia porcellus) of 28 and an ED50 [2] of 1.1 ×10⁻⁸ M. For the same compound, the ED25 [4] was 3.1 ×10⁻⁷ M.
With `CC(C)NCC(C)(O)c1ccc(O)c(O)c1` (stereo not drawn) the Activity [5] was 18% and the ED50 [2] was 3.4 µM.
`CC(C)NCC(O)c1ccc(O)c(NS(C)(=O)=O)c1` (stereo not drawn) showed an Intrinsic activity [3] of 0.7, a Selectivity ratio (Cavia porcellus) of 3 and an ED50 [2] of 2.6 ×10⁻⁸ M. It also gave an ED25 [4] of 7.6 ×10⁻⁸ M.
Compound `CC(C)(C)NCC(O)c1ccc(O)c(N)c1` (stereo not drawn) has a Selectivity ratio (Cavia porcellus) of 5.2.
For `CC(C)(C)NCC(O)c1ccc(O)c(O)c1` (stereo not drawn), the Intrinsic activity [3] was 1, the Selectivity ratio (Cavia porcellus) was 5.5 and the ED50 [2] was 0.0013 µM. The ED25 [4] was 0.0071 µM.
`CC(C)(C)NCC(CO)c1ccc(O)c(N)c1` (stereo not drawn) showed an Intrinsic activity [3] of 0.7, a Selectivity ratio (Cavia porcellus) of 1.4 and an ED50 [2] of 9.6 ×10⁻⁷ M. The ED25 [4] was 1.3 µM.
`CC(C)(C)NCC(CO)c1ccc(O)cc1` (stereo not drawn) was tested, and the Intrinsic activity [3] was 0.3, the Selectivity ratio (Cavia porcellus) was 24 and the ED50 [2] was 4.1 µM. The ED25 [4] was 9.8 ×10⁻⁵ M.
For `CC(C)(C)NCC(O)c1ccc(O)c(NC(N)=O)c1` (stereo not drawn), the Intrinsic activity [3] was 0.5, the Selectivity ratio (Cavia porcellus) was 34 and the ED50 [2] was 1.9 ×10⁻⁸ M. For the same compound, the ED25 [4] was 6.4 ×10⁻⁷ M.
Compound `COC(CNC(C)C)c1ccc(O)c(O)c1` (stereo not drawn) has an ED50 [2] of 1.6 µM and an ED25 [4] of 3 ×10⁻⁷ M.
Compound `CC(C)(C)NCC(CO)c1ccc(O)c(CO)c1` (stereo not drawn) has an Intrinsic activity [3] of 0.25, a Selectivity ratio (Cavia porcellus) of 10 and an ED50 [2] of 4.6 µM. For the same compound, the ED25 [4] was 4.7 ×10⁻⁵ M.
In the case of `CC(C)NCC(O)c1ccc(O)cc1` (stereo not drawn), the Intrinsic activity [3] is reported as 0.3, the Selectivity ratio (Cavia porcellus) is reported as 0.7 and the ED50 [2] is reported as 1.1 ×10⁻⁷ M. For the same compound, the ED25 [4] was 7.7 ×10⁻⁸ M.
`CC(C)(C)NCC(CO)c1ccc(O)c(O)c1` (stereo not drawn) gave an Intrinsic activity [3] of 1, a Selectivity ratio (Cavia porcellus) of 2.9 and an ED50 [2] of 3.3 ×10⁻⁸ M. For the same compound, the ED25 [4] was 9.6 ×10⁻⁸ M.
In the case of `CC(C)(C)NCC(CO)c1ccc(O)c(NC(N)=O)c1` (stereo not drawn), the Intrinsic activity [3] is reported as 0.3, the Selectivity ratio (Cavia porcellus) is reported as 18 and the ED50 [2] is reported as 5.2 ×10⁻⁷ M. For the same compound, the ED25 [4] was 9.3 µM.
